Columns and labels:
[1] = system: A/Puerto Rico/8/1934 H1N1 (PR8) virus; type: cell-based, influenza A virus
[2] = system: NF-kB activity / TNFα secretion; assay: Murine model of acute lung injury induced by lipopolysaccharide; type: in vivo, mice; conditions: 10 μg LPS
Experimental: NF-kB transgenic Balb/c (FIG. 11a, 11b) or C57Bl/6 (FIG. 11c) mice were instilled with 10 μg of lipopolysaccharides (LPS) and treated 15 minutes post-stimulation with 0.6 mg of cis-aconitate (CA) intranasally. 24 h post-instillation, mice were anesthetized. In the group of NF-kB transgenic Balb/c animals, luciferine was intranasally instilled (0.75 mg·kg^−1) and bioluminescence was measured using the IVIS imaging system (FIG. 11a, 11b). In the group of C57Bl/6 mice, BALs fluids were collected to determine TNFα levels (FIG. 11c).). Bioluminescence was then measured using the IVIS system. […] Statistical analysis was performed using the Mann-Whitney test.
Then, we further examined the anti-inflammatory effect of cis-aconitate administered intranasally in a valuable murine model of acute lung injury induced by lipopolysaccharide ([63]), a cell wall component characteristic of Gram-negative bacteria.

[3] = 0.6 mg intranasally every second day for 15 days
[4] = system: influenza B Yamagata (B/Paris/234/2013) virus; assay: Plaque-Forming Units assay, BEAS-2B cells infected with IBV; type: cell-based; conditions: 3.4 mM for 16 h from 4 h post-infection
IL-6 production [5] = assay: IL-6 ELISA in PBEC (IAV, poly(I:C) or PMA); type: cell-based, human
IL-6 production [6] = assay: hIL-6 ELISA in supernatants of IAV-infected BEAS-2B cells; type: cell-based, human
IAV-triggered cell death = type: cell-based, human
viral polymerase = viral polymerase (Influenza A virus, UniProt P03427+P03430+P15659); type: cell-based
[7] = system: Wuhan strain of SARS-CoV-2; assay: IL-6 ELISA in Vero epithelial cells infected with SARS-CoV-2 Wuhan strain; type: cell-based; conditions: MOI=1, 1 mg/ml cis-aconitate for 16 hours from 4 h post-infection
[8] = system: CCL2/MCP-1, CCL5/RANTES, CXCL1/GROa, CXCL10/IP-10, IL-6 and CXCL8/IL-8; assay: Protein-array of immune mediators in supernatants of IAV-infected BEAS-2B cells; type: cell-based, human; conditions: 3.4 mM
[9] = system: Delta strain of SARS-CoV-2; type: cell-based
[10] = system: influenza A/pandemic/2009 H1N1 (H1N1p) strain; type: cell-based, influenza A virus
BEAS-2B cells = assay: BEAS-2B tolerance: Ki67, mitotracker, DHR 123 and Live Dead staining; type: cell-based, human
Experimental: (FIG. 8a) Human bronchial epithelial BEAS-2B cells were treated with PBS or with 3.4 mM of cis-aconitate (CA), itaconate (Ita), oxaloacetate (Oxa), isocitrate (IsoC), citrate (Cit), fumarate (Fum), pyruvate (Pyr) or glucose (Glc) for 16 h and cytotoxicity was assessed by MTS assay. BEAS-2B cells were treated (CA+) or not (CA-) with 3.4 mM of CA for 6 or 24 h (FIG. 8b, 8c, 8d) or with 0, 1.2, 2.3 or 3.4 mM of CA for 20 h (FIG. 8e). Cell proliferation (FIG. 8b), mitochondrial labeling (FIG. 8c), ROS production (FIG. 8d) and cell viability (FIG. 8e) were analyzed by Ki67, mitotracker, DHR 123 and Live Dead staining respectively. (FIG. 8f) Human primary bronchial epithelial cells (PBEC) were treated with 0.6, 3.4 or 5.7 mM CA for 16 h and cytotoxicity was assessed by a MTS test. Data are represented as mean±/−SEM of 4 (FIG. 8b-f) or 5 (FIG. 8a) independent experiments. Statistical analysis was performed using the Kruskal-Wallis test with Dunn's multiple comparison test (FIGS. 8a, 8e and 8f) or Friedman test with Dunn's multiple comparison test (FIG. 8b-8d).
Cell proliferation and cytotoxicity assays. Cells in 96-well plates were washed twice with PBS and incubated for 1 h at 37° C. with 100 μL of MTS reagent diluted 1/5 for the cell proliferation test. Optical density was measured at 490 nm. For the cytotoxicity assay, cells were stained for 15 min at 4° C. with Live/Dead or with anti-Ki67, mitotracker and […] flow cytometry analysis.

IL-6 production [11] = assay: IL-6 ELISA in BEAS-2B cells stimulated with inflammatory agonists (PIC, PMA, TNFα); type: cell-based, human; conditions: increasing doses of CA 16 h
[12] = system: ERK, AKT and NF-κB signaling pathways; assay: Western blotting of phosphorylated ERK1/2, AKT and p65 in BEAS-2B cells; type: cell-based, human
IL-6 production [13] = assay: hIL-6 in IAV-infected human precision-cut lung slices (PCLS); type: cell-based; conditions: 3.4 mM CA 2 hpi, 48 hpi

## O=C(O)/C=C(/CC(=O)O)C(=O)O [cis-aconitate]
[1]
  viral particles production (PFU): at least one log decrease
[2]; C57Bl/6 mice, 0.6 mg CA intranasally, 24 h
  TNFα secretion in the BAL fluids: significantly decreased
[2]; NF-kB transgenic Balb/c mice, 0.6 mg CA intranasally 15 minutes post-stimulation, 24 hours
  LPS-induced inflammation (NF-kB bioluminescence): markedly reduced
[3]
  adverse effects: no adverse effects
[3]; day 0, 7, 14
  overall fecal microbial composition (Aitchison distance): no differences
[4]
  viral particles production (PFU): at least one log decrease
IL-6 production [5]
  reduction of IAV-induced hIL-6 production: up to 80%
IL-6 production [5]; PBEC, PMA 4 h, then CA 20 h
  pro-inflammatory cytokine (IL-6) expression induced by PMA: dose-dependent decrease
IL-6 production [5]; PBEC, poly(I:C) 4 h, then CA 20 h
  pro-inflammatory cytokine (IL-6) expression induced by PIC: dose-dependent decrease
IL-6 production [6]; BEAS-2B stimulated with IAV MOI=1, increasing doses of CA 16 h
  IL-6 production, dose-dependent: significant decrease
IL-6 production [6]; BEAS-2B, IAV MOI=1, 3.4 mM for 16 h
  IL-6 production of IAV-infected epithelial cells: reduced
IAV-triggered cell death
  reduction in SYTOX labeling (dead cells): approximately 70%
Viral polymerase
  luciferase activity versus concentration: dose-dependent decrease
  reduction of luciferase activity (viral polymerase activity): ~ 75%
[7]
  IL-6 production: significant reduction
[8]
  IAV-induced expression of CCL2/MCP-1, CCL5/RANTES, CXCL1/GROa, CXCL10/IP-10, IL-6 and CXCL8/IL-8: inhibited
[9]
  IL-6 production: significant reduction
[10]
  viral particles production (PFU): at least one log decrease
BEAS-2B cells; BEAS-2B, 0, 1.2, 2.3 or 3.4 mM, 20 h
  cell viability (Live Dead): did not impact
BEAS-2B cells; BEAS-2B, 3.4 mM, 6 or 24 h
  ROS production (DHR 123): did not impact
  cell proliferation (Ki67): did not impact
  mitochondria accumulation (mitotracker): did not impact
IL-6 production [11]; BEAS-2B stimulated with 20 ng/ml TNFα
  IL-6 production, dose-dependent: trend
IL-6 production [11]; BEAS-2B stimulated with 50 nM PMA
  IL-6 production, dose-dependent: significant decrease
IL-6 production [11]; BEAS-2B stimulated with 2 μg/mL Poly (I:C)
  IL-6 production, dose-dependent: significant decrease
[12]
  ERK, AKT and NF-κB signaling pathways: reductions
  accumulation of phosphorylated ERK1/2, Akt and p65: inhibited
IL-6 production [13]
  reduction in IL-6 production: twofold
